Data as given in PubChem BioAssay AID330 (DTP/NCI, 2004).
Several values for one entry are separate records, joined by “and”; a condition that tells them apart may be missing. Identical values can stand only once. Toxic doses and inconclusive results are not listed. How the source made its calls: active means survival T/C of 150% or more; inactive means T/C below 125% in these data.

Test system: P388 leukemia ip, CD2F1 mice, survival T/C
Test: NCI In Vivo Anticancer Drug Screen. Data for tumor model P388 Leukemia (intraperitoneal) in CD2F1 (CDF1) mice
Conditions: endpoint: median survival time, higher = longer survival
In short: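 Mice carrying the transplanted tumor received test compound or vehicle. Survival was recorded in each group, and the value is the treated-group measurement divided by that of the vehicle-treated control group.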

[1] = dose: 50.0 mg/kg/injection, schedule: Q01DX005 (ip), vehicle: Klucel (hydroxypropylcellulose) (HPC)
[2] = dose: 100.0 mg/kg/injection, schedule: Q01DX005 (ip), vehicle: Klucel (hydroxypropylcellulose) (HPC)
[3] = dose: 200.0 mg/kg/injection, schedule: Q01DX005 (ip), vehicle: Klucel (hydroxypropylcellulose) (HPC)
[4] = dose: 60.0 mg/kg/injection, schedule: Q01DX005 (ip), vehicle: saline with Tween-80
[5] = dose: 120.0 mg/kg/injection, schedule: Q01DX005 (ip), vehicle: saline with Tween-80
[6] = dose: 50.0 mg/kg/injection, schedule: Q01DX005 (ip), vehicle: saline with Tween-80
[7] = dose: 100.0 mg/kg/injection, schedule: Q01DX005 (ip), vehicle: saline with Tween-80
[8] = dose: 200.0 mg/kg/injection, schedule: Q01DX005 (ip), vehicle: saline with Tween-80
[9] = dose: 6.25 mg/kg/injection, schedule: Q01DX009 (ip), vehicle: saline with Tween-80
[10] = dose: 12.5 mg/kg/injection, schedule: Q01DX009 (ip), vehicle: saline with Tween-80
[11] = dose: 25.0 mg/kg/injection, schedule: Q01DX009 (ip), vehicle: saline with Tween-80
[12] = dose: 50.0 mg/kg/injection, schedule: Q01DX009 (ip), vehicle: saline with Tween-80
[13] = dose: 100.0 mg/kg/injection, schedule: Q01DX009 (ip), vehicle: saline with Tween-80
[14] = dose: 200.0 mg/kg/injection, schedule: Q01DX009 (ip), vehicle: saline with Tween-80

Measured: T/C

O=C1CCC(O)N1CN1C(=O)CCC1O (centres undefined)
inactive: dose: 60.0 mg/kg/injection, schedule: Q01DX005 (ip), vehicle: saline 100 % of control | dose: 120.0 mg/kg/injection, schedule: Q01DX005 (ip), vehicle: saline 108 % of control | dose: 240.0 mg/kg/injection, schedule: Q01DX005 (ip), vehicle: saline 100 % of control

CC[C@@]1(CCC(=O)OC)CCC(=O)N2CC[C@@]3(C(=O)Nc4ccccc43)[C@@H]21
inactive: [1] 100 % of control | [2] 95 % of control | [3] 91 % of control

CCOC(=O)c1cnc(SC)n(-c2ccc(OC)cc2)c1=O
inactive: [1] 107 % of control | [2] 92 % of control | [3] 101 % of control

Cc1nc(C#N)c(=N)n(CCCO)c1-c1ccccc1
inactive: [4] 109 % of control | [5] 101 % of control

CC(Oc1ccc(Cl)cc1Cl)C(=O)NC(Cc1ccccc1)C(=O)O (centres undefined)
inactive: [6] 102 % of control | [7] 110 % of control | [8] 102 % of control

Cc1ccc(S(=O)(=O)/N=C2\C=CC=C\C2=C2\Sc3ccccc3N2C)cc1
inactive: dose: 100.0 mg/kg/injection, schedule: Q04DX003 (ip), vehicle: saline 102 % of control | dose: 200.0 mg/kg/injection, schedule: Q04DX003 (ip), vehicle: saline 99 % of control | dose: 400.0 mg/kg/injection, schedule: Q04DX003 (ip), vehicle: saline 95 % of control

O=C(O)CCC(=O)CCC(=O)c1ccc(O)c2ncccc12
inactive: [1] 92 % of control | [2] 105 % of control | [3] 111 % of control

NC(N)=N/N=C1\C/C(=N\N=C(N)N)c2ccccc21
inactive: [9] 99 % of control | [10] 97 % of control | dose: 25.0 mg/kg/injection, schedule: Q01DX001 (ip), vehicle: saline with Tween-80 107 % of control | [11] 91 % of control | dose: 50.0 mg/kg/injection, schedule: Q01DX001 (ip), vehicle: saline with Tween-80 100 % of control

CN1C=C/C(=C/[N+](=O)[O-])N(C)C1=O
inactive: dose: 25.0 mg/kg/injection, schedule: Q01DX005 (ip), vehicle: Klucel (hydroxypropylcellulose) (HPC) 99 % of control | [1] 105 % of control | [2] 100 % of control | [3] 112 % of control

BrC1/C=C\CC(Br)/C=C\C1 (centres undefined)
inactive: [12] 110 % of control | [13] 117 % of control | [14] 115 % of control

CCOC(=O)Nc1c(CC(C)(C)O)n[nH]c1C
inactive: [6] 103 % of control | [7] 100 % of control | [8] 100 % of control

ClC(Cl)(Cl)C1=NCc2nnn(Cc3ccccc3)c2N1
inactive: dose: 6.25 mg/kg/injection, schedule: Q01DX009 (ip), vehicle: Klucel (hydroxypropylcellulose) (HPC) 113 % of control | [9] 118 % of control | dose: 12.5 mg/kg/injection, schedule: Q01DX009 (ip), vehicle: Klucel (hydroxypropylcellulose) (HPC) 114 % of control | [10] 115 % of control and 117 % of control | [11] 105 % of control and 106 % of control | dose: 50.0 mg/kg/injection, schedule: Q01DX009 (ip), vehicle: Klucel (hydroxypropylcellulose) (HPC) 104 % of control | [13] 110 % of control | [14] 100 % of control and 113 % of control | dose: 400.0 mg/kg/injection, schedule: Q01DX009 (ip), vehicle: saline with Tween-80 96 % of control

CCOc1cccc(C=N)c1O
inactive: [4] 111 % of control | [5] 105 % of control

CCCCCCCN(CCCCCCC)CC(O)c1ccc2ccc3ccc(Cl)cc3c2c1 (centres undefined)
inactive: [6] 96 % of control | [7] 96 % of control | [8] 104 % of control

O=C(Nc1ccc(Cl)cc1)Nc1nnc(-c2ccc(Cl)cc2Cl)o1
inactive: [4] 91 % of control | [5] 86 % of control | dose: 240.0 mg/kg/injection, schedule: Q01DX005 (ip), vehicle: saline with Tween-80 97 % of control

CC1CN1CCS(=O)(=O)CCN1CC1C (centres undefined)
inactive: [12] 95 % of control | [13] 104 % of control
